Data reported in publication PMC10157890, “Lysine Deacetylase Substrate Selectivity: Distinct Interaction Surfaces Drive Positive and Negative Selection for Residues Following Acetyllysine” (Biochemistry, 2023).

Experiments:
full-length human KDAC6 = target: T1, full-length human KDAC6 (Homo sapiens, UniProt Q9UBN7); assay: Activity of KDAC6 with putative substrate peptides (verification of substrate preferences); type: biochemical; conditions: endpoint, 100 μM peptide, buffer also containing 100 mM KCl; for specific activity, KDAC6 with putative substrates: 50–200 nM KDAC, 25 °C, pH 7.6, 15–60 min, average ± SD, SD
T1 construct: A pFastbac1 construct containing full-length human KDAC6 (UniProtKB Q9UBN7) with a C-terminal His6 tag; His6 (C); made in house; host or cells: ExpiSf9 insect cells (baculovirus)
T1 sequence (Q9UBN7 1-1215): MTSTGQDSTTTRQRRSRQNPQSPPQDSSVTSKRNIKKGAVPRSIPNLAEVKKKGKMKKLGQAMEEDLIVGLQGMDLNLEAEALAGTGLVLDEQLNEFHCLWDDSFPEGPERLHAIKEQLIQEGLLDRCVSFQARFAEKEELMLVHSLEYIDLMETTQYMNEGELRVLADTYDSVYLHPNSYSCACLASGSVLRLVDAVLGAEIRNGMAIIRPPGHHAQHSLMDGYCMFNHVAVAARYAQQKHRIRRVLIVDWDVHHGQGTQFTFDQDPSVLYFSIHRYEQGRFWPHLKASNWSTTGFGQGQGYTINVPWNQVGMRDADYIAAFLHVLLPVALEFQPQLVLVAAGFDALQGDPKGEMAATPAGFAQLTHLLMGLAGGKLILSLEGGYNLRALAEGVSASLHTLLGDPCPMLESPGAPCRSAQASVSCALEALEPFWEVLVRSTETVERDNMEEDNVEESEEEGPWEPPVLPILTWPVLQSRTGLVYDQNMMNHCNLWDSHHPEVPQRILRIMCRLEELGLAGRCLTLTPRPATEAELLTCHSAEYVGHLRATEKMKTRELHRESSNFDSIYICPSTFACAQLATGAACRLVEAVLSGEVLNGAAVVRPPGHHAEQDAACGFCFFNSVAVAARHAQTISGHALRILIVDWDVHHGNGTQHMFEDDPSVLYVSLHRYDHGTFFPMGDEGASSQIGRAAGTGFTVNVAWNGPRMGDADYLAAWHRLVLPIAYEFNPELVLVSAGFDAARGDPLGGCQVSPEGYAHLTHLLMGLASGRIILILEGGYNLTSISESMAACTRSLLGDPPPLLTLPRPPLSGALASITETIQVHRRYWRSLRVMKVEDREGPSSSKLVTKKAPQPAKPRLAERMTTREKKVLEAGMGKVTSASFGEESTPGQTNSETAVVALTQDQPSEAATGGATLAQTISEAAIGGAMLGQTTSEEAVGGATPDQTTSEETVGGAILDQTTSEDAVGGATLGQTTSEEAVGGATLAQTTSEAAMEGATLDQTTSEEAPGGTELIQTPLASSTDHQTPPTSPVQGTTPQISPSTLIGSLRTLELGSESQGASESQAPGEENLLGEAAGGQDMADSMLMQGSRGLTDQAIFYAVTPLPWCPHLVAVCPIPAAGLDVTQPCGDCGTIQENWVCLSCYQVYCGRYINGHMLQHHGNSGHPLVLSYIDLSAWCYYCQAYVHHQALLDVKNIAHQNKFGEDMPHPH
Method: (§1) Peptide substrates were synthesized to >95% purity (GenScript) with N-terminal acetylation and C-terminal amidation. For endpoint experiments, 100 μM peptide substrates were reacted with 50–200 nM KDAC at 25 °C at pH 7.6 for 15–60 min. Deacetylation was measured using a fluorescamine-based assay that was previously described in detail.[18] Reported raw activity for each enzyme–substrate pair is the average and standard deviation for n ≥ 4 unless otherwise noted. Normalized activity was calculated by defining the activity of each KDAC with the FRK^acWR peptide equal to 1. Statistical significance was determined by calculating p values using two-tailed t-tests, assuming similar variance. The significance threshold was set at p ≤ 0.01 with the Bonferroni correction for multiple testing. Kinetic parameters were determined for a subset of enzyme–substrate pairs. In these experiments, 50–200 nM KDAC was reacted with ≥5 substrate concentrations from 10 to 2500 nM and ≥3 timepoints at intervals of 3–20 min were collected for each substrate concentration. Deacetylation was measured using the same method as the endpoint experiments, and KM and kcat were calculated from the observed activity of each reaction as previously described.[18] Activity assays with peptides for verification of substrate preferences were performed as for endpoint experiments, except in a buffer also containing 100 mM KCl. Statistical analysis of the correlation of the presence of particular substrate residues with activity was performed using Fisher’s exact test with a significance threshold of p ≤ 0.05.
In contrast with the peptides tested thus far, which were all derivatives of a single substrate, these panels consisted of peptides derived from human proteins in which the lysine residue is known to be acetylated in cells.[3],[5],[42],[50]−[72] For each enzyme, peptides were included either because they contained an acetyllysine that has been identified as a putative substrate of the KDAC from published cellular studies and/or because the peptide contained a residue that appeared to drive KDAC activity in our analysis. For KDAC6, we observed that of the set of peptides that were tested, six contained tryptophan or tyrosine directly after the acetyllysine. Remarkably, all of these peptides appeared in the top seven most reactive substrates tested (Table 2). Assuming that phenylalanine would behave similarly to tryptophan and tyrosine, we determined that there was a statistically significant correlation between whether or not a peptide was deacetylated by KDAC6 and the presence of tyrosine, tryptophan, or phenylalanine in the +1 position (p = 0.011). […] Thus, our conclusion that the presence of these aromatic residues in the +1 position relative to the acetyllysine is a major factor promoting KDAC6 activity has predictive utility and provides some understanding of the underlying mechanistic basis.

Full-length human KDAC8 = target: T2, Full-length human KDAC8 (Homo sapiens, UniProt Q9BY41); assay: Activity of KDAC8 with putative substrate peptides (verification of substrate preferences); type: biochemical; conditions: endpoint, 100 μM peptide, buffer also containing 100 mM KCl; for specific activity, KDAC8 with putative substrates (no activity above limit): limit of reliable detection 0.0004 s^–1; for specific activity, KDAC8 with putative substrates: 50–200 nM KDAC, 25 °C, pH 7.6, 15–60 min, average ± SD, SD
T2 construct: Full-length human KDAC8 (UniProtKB Q9BY41) was recombinantly expressed fused to a C-terminal His6 tag; TEV protease cleavage site (C); His6 (C); made in house; host or cells: Escherichia coli
T2 sequence (Q9BY41 1-377): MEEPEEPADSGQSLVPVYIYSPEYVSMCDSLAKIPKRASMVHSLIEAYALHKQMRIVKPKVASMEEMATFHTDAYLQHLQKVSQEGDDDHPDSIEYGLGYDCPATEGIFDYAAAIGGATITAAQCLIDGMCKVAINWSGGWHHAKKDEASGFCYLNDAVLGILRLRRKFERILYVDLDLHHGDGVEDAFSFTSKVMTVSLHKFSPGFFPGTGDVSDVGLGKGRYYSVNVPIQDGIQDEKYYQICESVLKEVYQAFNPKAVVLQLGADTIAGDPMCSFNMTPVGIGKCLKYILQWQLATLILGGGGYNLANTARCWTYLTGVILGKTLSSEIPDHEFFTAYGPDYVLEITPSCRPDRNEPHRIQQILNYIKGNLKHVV
Method: as §1
We performed a similar experiment for KDAC8, this time using substrates that have been described as potential KDAC8 substrates from cell-based studies or which contained residues in the +1 and/or +2 positions that were identified to enhance activity of KDAC8. […] In addition, we also considered phenylalanine, as we did for KDAC6. Here, we looked at the correlation between peptides having any of these features and activity. While the result was less striking than for KDAC6, there was still a positive correlation between the presence of the identified residues and activity (Table 3; p = 0.048). Although we have identified only a portion of the interactions that likely contribute to substrate selectivity for these enzymes, these interactions correlate with a statistically significant increase in activity with peptides from potential biological substrates in an unbiased background of residues in other positions.

Substance | specific activity, KDAC6 with putative substrates (full-length human KDAC6) | specific activity, KDAC8 with putative substrates (Full-length human KDAC8) | specific activity, KDAC6 with putative substrates (no activity above limit) (full-length human KDAC6; limit of reliable detection 0.0013 s^–1) | specific activity, KDAC8 with putative substrates (no activity above limit) (Full-length human KDAC8)
GTAK^acSVT [acetyllysine peptide from cellular tumor antigen p53 (P04637)] | – | – | – (– indicates no activity above the limit of reliable detection (0.0013 s^–1)) | – (– indicates no activity above the limit of reliable detection (0.0004 s^–1))
LSGK^acEIN [acetyllysine peptide from serine/arginine-rich splicing factor 5 (Q13243)] | 0.024 ± 0.005 s^–1 | – | – | – (– indicates no activity above the limit of reliable detection (0.0004 s^–1))
SDMK^acHWP [acetyllysine peptide from heat shock 70 kDa protein 1A/1B (P0DMV8/P0DMV9)] | 0.013 ± 0.009 s^–1 | – | – | – (– indicates no activity above the limit of reliable detection (0.0004 s^–1))

More lines, main results first:

specific activity, KDAC6 with putative substrates (full-length human KDAC6) | specific activity, KDAC8 with putative substrates (Full-length human KDAC8) | Substance | specific activity, KDAC6 with putative substrates (no activity above limit) (full-length human KDAC6; limit of reliable detection 0.0013 s^–1) | specific activity, KDAC8 with putative substrates (no activity above limit) (Full-length human KDAC8)
0.055 ± 0.024 s^–1 | – | GVGK^acYIN [acetyllysine peptide from RING-type E3 ubiquitin-protein ligase PPIL2 (Q13356)] | – | – (– indicates no activity above the limit of reliable detection (0.0004 s^–1))
0.14 ± 0.03 s^–1 | 0.020 ± 0.006 s^–1 | QLSK^acWP [acetyllysine peptide from forkhead box protein O3 (O43524)] | – | –
0.024 ± 0.013 s^–1 | – | SHLK^acAHL [acetyllysine peptide from transcription factor Sp7 (Q8TDD2)] | – | – (– indicates no activity above the limit of reliable detection (0.0004 s^–1))
0.10 ± 0.04 s^–1 | 0.0011 ± 0.0006 s^–1 | TGNK^acYVP [acetyllysine peptide from tubulin β-3 chain (Q13509)] | – | –
